System: rabbit's corpus cavernosum
Assay: Relaxing effect in isolated rabbit's corpus cavernosum strips pre-contracted with phenylephrine (isometric tension)
Set-up: species or system New Zealand White rabbits
Conditions: strips pre-contracted with 1 μM PE; FIGS. 12 and 13
Method: For this study, New Zealand White rabbits (2 to 3.5 kg) were used to obtain penile tissue which was excised and transferred to a chilled Krebs solution. For this study, we used cavernosum strips (CC) of the penile tissue of New Zealand White rabbits. The strips were mounted in 10 ml tissue incubation chambers containing Krebs solution at 37° C., pH occurring between 7.3 and 7.5; continuously bubbled with a mixture of 95% oxygen (O2) and 5% carbon dioxide (CO2). An initial tension of 10 mN were applied on the tissues, followed by a 60 minute stabilization period. Changes in tension (isometric force) were obtained using isometric transducers (ADInstruments, Australia) and recorded in a data acquisition system PowerLab 4/30 (Chart Software, version 7.3.7, ADInstruments, MA, USA for BL-230 and version 7.0 ADInstruments, MA for the BL-236). […] Cumulative curve responses to the concentration of BL-230 compounds and tadalafil (0.001 to 10 μM) were obtained in the pre-contracted rabbit corpus cavernosum strips with 1 μM PE.

CN1CC(=O)N2[C@H](c3ccc4c(c3)OCO4)c3[nH]c4ccccc4c3C[C@@H]2C1=O [tadalafil, reference compound]
percentage of relaxation in rabbit's corpus cavernosum: around 100%

Reference: patent US9359378B2, “Substituted oxazolo[3,4-a]pyrazines as pharmaceutcals” (BIOLAB SANUS FARMACÊUTICA LTDA., priority 2014, dated 2016)
